The record followed here is ChEMBL document CHEMBL5096235, “In Silico Exploration and Biological Evaluation of Bispecific Peptides Derived from Anti-HER2 Antibodies and Peptide-Camptothecin Conjugates for HER2-Positive Breast Cancer” (J Med Chem, 2022).

One may read the Kd as the concentration at which binding is half-saturated. What is called half-life is how long it takes for the measured level to halve. In general, IC50 refers to the concentration that inhibits the measured activity by half.

Data set [1] can be described thus: Drug uptake in tumor of nude mouse xenografted with HER2-positive human SK-BR-3 cells assessed as increase in fluorescence intensity at 25 uM, iv measured after 2 hrs by IVIS spectrum in vivo imaging analysis. It is filed as ADME, organism-based, Neoplasm.
Data set [2] concerns the target T1, Receptor tyrosine-protein kinase erbB-2 (Homo sapiens, UniProt P04626). Description: Binding affinity to recombinant HER2 (unknown origin) assessed as dissociation constant by SPR analysis.
A short description of data set [3]: Metabolic stability in Sprague-Dawley rat plasma assessed as drug degradation incubated for 120 mins by LC-MS/MS analysis. The settings on record: 2 h. It is filed as ADME, cell-free.
Data set [4] is described as follows: Metabolic stability in Sprague-Dawley rat plasma assessed as half life incubated for 120 mins by LC-MS/MS analysis. In kind it is ADME, cell-free.
The target in data set [5] is T1, Receptor tyrosine-protein kinase erbB-2. Put plainly: Binding affinity to HER2 in HER-positive human SK-BR-3 cells assessed as increase in fluorescence intensity at 25 uM by Hoechst 33342 staining based confocal microscopic analysis. In kind it is cell-based.
The test system of data set [6] is SK-BR-3. Description: Cytotoxicity against HER-positive human SK-BR-3 cells assessed as inhibition of cell growth incubated for 48 hrs by MTT assay. It is filed as functional, cell-based. The settings on record: SK-BR-3, 48 h. (Formazan colour is commonly taken as a measure of viable cells.)
The subject of data set [7] is NCI-N87. Description: Cytotoxicity against HER-positive human NCI-N87 cells assessed as inhibition of cell growth incubated for 48 hrs by MTT assay. In kind it is functional, cell-based. The conditions noted are these: NCI-N87, 48 h.
The test system of data set [8] is SK-OV-3. Description: Cytotoxicity against HER-positive human SK-OV-3 cells assessed as inhibition of cell growth incubated for 48 hrs by MTT assay. It is filed as functional, cell-based. The settings on record: SK-OV-3, 48 h.
The test system of data set [9] is MDA-MB-231. Put plainly: Cytotoxicity against HER-negative human MDA-MB-231 cells assessed as inhibition of cell growth incubated for 48 hrs by MTT assay. It is filed as functional, cell-based. The settings on record: MDA-MB-231, 48 h.
The nature of data set [10]: Cytotoxicity against human MCF-10A cells assessed as inhibition of cell growth incubated for 48 hrs by MTT assay. It is filed as toxicity, cell-based.
The subject of data set [11] is SK-BR-3. Put plainly: Induction of apoptosis in human SK-BR-3 cells assessed as live cells incubated for 24 hrs by Annexin V-FITC/PI staining based flow cytometry analysis (Rvb= 89.4%). In kind it is functional.
In data set [12] the test system is SK-BR-3. Description: Induction of apoptosis in human SK-BR-3 cells assessed as early apoptotic cells incubated for 24 hrs by Annexin V-FITC/PI staining based flow cytometry analysis (Rvb= 4.37%). In kind it is functional. A general note: Flow cytometry measures light scatter and fluorescence of single cells or particles in a stream.
In data set [13] the test system is SK-BR-3. Put plainly: Induction of apoptosis in human SK-BR-3 cells assessed as late apoptotic cells incubated for 24 hrs by Annexin V-FITC/PI staining based flow cytometry analysis (Rvb= 5.02%). It is filed as functional.
Data set [14] has as its system SK-BR-3. Description: Induction of apoptosis in human SK-BR-3 cells assessed as dead cells incubated for 24 hrs by Annexin V-FITC/PI staining based flow cytometry analysis (Rvb= 1.21%). In kind it is functional.
The subject of data set [15] is SK-BR-3. Put plainly: Induction of cell cycle arrest in human SK-BR-3 cells assessed as accumulation of cells at S phase incubated for 24 hrs by flow cytometry analysis (reference value: 23%). It is filed as functional.
The nature of data set [16]: Toxicity in nude mouse xenografted with human SK-BR-3 cells assessed as effect on alkaline phosphatase level at 8 micromol/kg, iv administered every 3 days for 14 days. In kind it is organism-based. The conditions noted are these: in vivo, 336 h, dose 8 µmol/kg, time 14 day. A general note: In xenograft studies the graft and the host belong to different species.
Data set [17] is described as follows: Toxicity in nude mouse xenografted with human SK-BR-3 cells assessed as effect on total protein level at 8 micromol/kg, iv administered every 3 days for 14 days. In kind it is organism-based. The settings on record: in vivo, 336 h, dose 8 µmol/kg, time 14 day.
Data set [18] is described as follows: Toxicity in nude mouse xenografted with human SK-BR-3 cells assessed as effect on albumin level at 8 micromol/kg, iv administered every 3 days for 14 days. The conditions noted are these: in vivo, 336 h, dose 8 µmol/kg, time 14 day. In kind it is organism-based.
Data set [19] is described as follows: Toxicity in nude mouse xenografted with human SK-BR-3 cells assessed as effect on globulin level at 8 micromol/kg, iv administered every 3 days for 14 days. It is filed as organism-based. The settings on record: in vivo, 336 h, dose 8 µmol/kg, time 14 day.
A short description of data set [20]: Toxicity in nude mouse xenografted with human SK-BR-3 cells assessed as effect on creatinine level at 8 micromol/kg, iv administered every 3 days for 14 days. In kind it is organism-based. The settings on record: in vivo, 336 h, dose 8 µmol/kg, time 14 day.
The nature of data set [21]: Toxicity in nude mouse xenografted with human SK-BR-3 cells assessed as heart damage at 8 micromol/kg, iv administered every 3 days for 14 days by H and E staining based analysis. In kind it is organism-based. The conditions noted are these: in vivo, 336 h, dose 8 µmol/kg, time 14 day.
Data set [22] is described as follows: Toxicity in nude mouse xenografted with human SK-BR-3 cells assessed as liver damage at 8 micromol/kg, iv administered every 3 days for 14 days by H and E staining based analysis. It is filed as organism-based. The conditions noted are these: in vivo, 336 h, dose 8 µmol/kg, time 14 day.
Data set [23] can be described thus: Toxicity in nude mouse xenografted with human SK-BR-3 cells assessed as spleen damage at 8 micromol/kg, iv administered every 3 days for 14 days by H and E staining based analysis. In kind it is organism-based. The settings on record: in vivo, 336 h, dose 8 µmol/kg, time 14 day.
Data set [24] can be described thus: Toxicity in nude mouse xenografted with human SK-BR-3 cells assessed as lung damage at 8 micromol/kg, iv administered every 3 days for 14 days by H and E staining based analysis. It is filed as organism-based. The settings on record: in vivo, 336 h, dose 8 µmol/kg, time 14 day.
The nature of data set [25]: Toxicity in nude mouse xenografted with human SK-BR-3 cells assessed as kidney damage at 8 micromol/kg, iv administered every 3 days for 14 days by H and E staining based analysis. It is filed as organism-based. The conditions noted are these: in vivo, 336 h, dose 8 µmol/kg, time 14 day.
Data set [26] in a line: Toxicity in nude mouse xenografted with human SK-BR-3 cells assessed as cellular necrosis at 8 micromol/kg, iv administered every 3 days for 14 days by H and E staining based analysis. The settings on record: in vivo, 336 h, dose 8 µmol/kg, time 14 day. It is filed as organism-based.
A short description of data set [27]: Toxicity in nude mouse xenografted with human SK-BR-3 cells assessed as inflammatory cell infiltration at 8 micromol/kg, iv administered every 3 days for 14 days by H and E staining based analysis. It is filed as organism-based. The conditions noted are these: in vivo, 336 h, dose 8 µmol/kg, time 14 day.

Calls of active or inactive are those of the source. No cut-off for these calls is given here. Residues, ends and D or L forms follow the SMILES beside them.

T1 sequence (P04626 whole entry): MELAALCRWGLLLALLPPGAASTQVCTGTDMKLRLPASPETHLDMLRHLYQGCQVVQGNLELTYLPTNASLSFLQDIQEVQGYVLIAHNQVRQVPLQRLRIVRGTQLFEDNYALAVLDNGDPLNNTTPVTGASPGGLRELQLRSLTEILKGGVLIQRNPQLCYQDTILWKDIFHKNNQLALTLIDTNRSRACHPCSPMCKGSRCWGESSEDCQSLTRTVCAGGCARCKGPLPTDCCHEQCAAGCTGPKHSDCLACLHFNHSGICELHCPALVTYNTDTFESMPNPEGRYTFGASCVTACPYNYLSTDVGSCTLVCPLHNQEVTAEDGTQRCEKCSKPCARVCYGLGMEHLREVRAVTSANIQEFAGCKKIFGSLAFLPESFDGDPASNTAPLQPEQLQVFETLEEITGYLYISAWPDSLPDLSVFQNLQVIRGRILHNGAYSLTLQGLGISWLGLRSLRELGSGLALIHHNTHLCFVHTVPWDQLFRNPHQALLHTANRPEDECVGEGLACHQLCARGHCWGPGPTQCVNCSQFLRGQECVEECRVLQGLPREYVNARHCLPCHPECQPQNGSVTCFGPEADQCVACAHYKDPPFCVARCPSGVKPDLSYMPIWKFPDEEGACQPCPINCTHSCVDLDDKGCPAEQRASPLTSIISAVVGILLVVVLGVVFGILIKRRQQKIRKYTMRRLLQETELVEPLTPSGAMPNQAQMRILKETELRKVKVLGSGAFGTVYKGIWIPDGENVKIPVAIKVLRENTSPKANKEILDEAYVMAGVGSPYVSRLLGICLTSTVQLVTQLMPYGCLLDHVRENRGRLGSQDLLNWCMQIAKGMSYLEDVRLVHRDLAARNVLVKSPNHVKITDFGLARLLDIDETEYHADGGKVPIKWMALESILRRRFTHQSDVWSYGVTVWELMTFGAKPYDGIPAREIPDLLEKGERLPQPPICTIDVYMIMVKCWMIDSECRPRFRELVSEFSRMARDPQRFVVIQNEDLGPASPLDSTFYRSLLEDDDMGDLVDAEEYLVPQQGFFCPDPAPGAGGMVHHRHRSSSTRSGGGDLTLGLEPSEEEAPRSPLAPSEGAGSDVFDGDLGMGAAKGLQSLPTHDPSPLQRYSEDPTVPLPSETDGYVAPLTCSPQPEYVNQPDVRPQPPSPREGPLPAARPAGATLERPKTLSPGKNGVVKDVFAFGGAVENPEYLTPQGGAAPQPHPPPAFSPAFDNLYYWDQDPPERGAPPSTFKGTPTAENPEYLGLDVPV

On to `CC[C@H](C)[C@H](NC(=O)[C@H](CCCNC(=N)N)NC(=O)CNC(=O)[C@H](CS)NC(=O)CNC(=O)[C@H](CCCCN)NC(=O)[C@H](Cc1ccccc1)NC(=O)[C@H](CCCNC(=N)N)NC(=O)[C@H](CCC(N)=O)NC(=O)[C@H](CC(N)=O)NC(=O)[C@H](Cc1ccc(O)cc1)NC(=O)[C@H](Cc1c[nH]c2ccccc12)NC(=O)[C@H](CO)NC(=O)[C@H](CCCNC(=N)N)NC(=O)CNC(=O)[C@H](Cc1c[nH]c2ccccc12)NC(=O)[C@H](CC(N)=O)NC(=O)[C@@H]1CCCN1C(=O)[C@@H](N)CC(=O)NC(=S)Nc1ccc2c(c1)C(=O)OC21c2ccc(O)cc2Oc2cc(O)ccc21)C(=O)N[C@@H](CCCCN)C(=O)N1CCC[C@H]1C(=O)N[C@@H](CCCNC(=N)N)C(=O)N[C@@H](CCCCN)C(=O)NCC(=O)N[C@@H](Cc1ccc(O)cc1)C(=O)N[C@H](C(=O)N[C@@H](CCCNC(=N)N)C(N)=O)[C@@H](C)O`, for which, in data set [1], the Drug uptake result is on record as “Active”.

Take `CC[C@H](C)[C@H](NC(=O)[C@H](CCCNC(=N)N)NC(=O)CNC(=O)[C@H](CS)NC(=O)CNC(=O)[C@H](CS)NC(=O)CNC(=O)[C@H](CCCCN)NC(=O)[C@H](Cc1ccccc1)NC(=O)[C@H](CCCNC(=N)N)NC(=O)[C@H](CCC(N)=O)NC(=O)[C@H](CC(N)=O)NC(=O)[C@H](Cc1ccc(O)cc1)NC(=O)[C@H](Cc1c[nH]c2ccccc12)NC(=O)[C@H](CO)NC(=O)[C@H](CCCNC(=N)N)NC(=O)CNC(=O)[C@H](Cc1c[nH]c2ccccc12)NC(=O)[C@H](CC(N)=O)NC(=O)[C@@H]1CCCN1C(=O)[C@@H](N)CC(N)=O)C(=O)N[C@@H](CCCCN)C(=O)N1CCC[C@H]1C(=O)N[C@@H](CCCNC(=N)N)C(=O)N[C@@H](CCCCN)C(=O)NCC(=O)N[C@@H](Cc1ccc(O)cc1)C(=O)N[C@H](C(=O)N[C@@H](CCCNC(=N)N)C(=O)O)[C@@H](C)O` (H-NPNWGRSWYNQRFKGCGCGRIKPRKGYTR-OH): the Kd in data set [2] stood at 385 nM. In data set [3], the Stability result is recorded as “Unstable”. The half-life in data set [4] was found to be 15 min.

In the case of `CC[C@H](C)[C@H](NC(=O)[C@H](CCCNC(=N)N)NC(=O)CNC(=O)[C@H](CS)NC(=O)CNC(=O)[C@H](CCCCN)NC(=O)[C@H](Cc1ccccc1)NC(=O)[C@H](CCCNC(=N)N)NC(=O)[C@H](CCC(N)=O)NC(=O)[C@H](CC(N)=O)NC(=O)[C@H](Cc1ccc(O)cc1)NC(=O)[C@H](Cc1c[nH]c2ccccc12)NC(=O)[C@H](CO)NC(=O)[C@H](CCCNC(=N)N)NC(=O)CNC(=O)[C@H](Cc1c[nH]c2ccccc12)NC(=O)[C@H](CC(N)=O)NC(=O)[C@@H]1CCCN1C(=O)[C@@H](N)CC(N)=O)C(=O)N[C@@H](CCCCN)C(=O)N1CCC[C@H]1C(=O)N[C@@H](CCCNC(=N)N)C(=O)N[C@@H](CCCCN)C(=O)NCC(=O)N[C@@H](Cc1ccc(O)cc1)C(=O)N[C@H](C(=O)N[C@@H](CCCNC(=N)N)C(=O)O)[C@@H](C)O` (H-NPNWGRSWYNQRFKGCGRIKPRKGYTR-OH), the Kd in [2] was 151 nM. Besides, the Stability result in data set [3] is given as “Unstable”. Further, in data set [4], the half-life turned out to be 15 min.

In the case of `CC[C@H](C)[C@H](NC(=O)[C@H](CCCNC(=N)N)NC(=O)CNC(=O)[C@H](CS)NC(=O)CNC(=O)[C@H](CCCCN)NC(=O)[C@H](Cc1ccccc1)NC(=O)[C@H](CCCNC(=N)N)NC(=O)[C@H](CCC(N)=O)NC(=O)[C@H](CC(N)=O)NC(=O)[C@H](Cc1ccc(O)cc1)NC(=O)[C@H](Cc1c[nH]c2ccccc12)NC(=O)[C@H](CO)NC(=O)[C@H](CCCNC(=N)N)NC(=O)CNC(=O)[C@H](Cc1c[nH]c2ccccc12)NC(=O)[C@H](CC(N)=O)NC(=O)[C@@H]1CCCN1C(=O)[C@@H](N)CC(=O)NC(=S)Nc1ccc2c(c1)C(=O)OC21c2ccc(O)cc2Oc2cc(O)ccc21)C(=O)N[C@@H](CCCCN)C(=O)N1CCC[C@H]1C(=O)N[C@@H](CCCNC(=N)N)C(=O)N[C@@H](CCCCN)C(=O)NCC(=O)N[C@@H](Cc1ccc(O)cc1)C(=O)N[C@H](C(=O)N[C@@H](CCCNC(=N)N)C(=O)O)[C@@H](C)O` (HELM PEPTIDE1{D.P.N.W.G.R.S.W.Y.N.Q.R.F.K.G.C.G.R.I.K.P.R.K.G.Y.T.R}|CHEM1{[O=C1OC2(c3ccc(O)cc3Oc3cc(O)ccc32)c2ccc(NC(=S)N[*:1])cc21]}$PEPTIDE1,CHEM1,1:R3-1:R1$$$V2.0), in data set [5], the result was Active. Further, in data set [1], the Drug uptake result is “Active”.

As for `CC[C@@]1(O)C(=O)OCc2c1cc1n(c2=O)Cc2cc3ccccc3nc2-1` [CAMPTOTHECIN], the IC50 in data set [6] was found to be 210 nM; in data set [7], 2320 nM; in data set [8], 3820 nM; in [9], 1060 nM. For the same compound, the IC50 at 48 h in data set [10] was determined as 2580 nM. Further, the Activity in data set [11] is recorded as 48.8%; in data set [12], 38.6%; in data set [13], 12.3%; in [14], 0.35%; in data set [15] it was 50.8%; in [16], “Non-Toxic”. For the same compound, the Activity entry in data set [17], in data set [18], in data set [19], in data set [20], in data set [21] and in data set [22] was “Non-Toxic” in each case. Moreover, the Activity result in [23], in data set [24], in [25], in data set [26] and in [27] was “Non-Toxic” throughout.
